Among the data in patent US20110130380A1, “Heteroaryl Kinase Inhibitors” (priority 2009, published 2011) are IC50 values, retold here.

The IC50 is the concentration needed to halve the response being measured.

Structures are written as SMILES.

The test has as its target Cdk9/cyclinT1 (Homo sapiens, UniProt P50750). Nature of the test: Cdk9/cyclinT1 IMAP Protocol (fluorescence polarization kinase assay). As to conditions: Cdk9_cyclinT1_IC50, Table V; generated using one of the two Cdk9/cyclinT1 assays (IMAP or Alpha Screen), not stated which; ATP 6 uM.

Cdk9/cyclinT1, sequence (P50750 whole entry): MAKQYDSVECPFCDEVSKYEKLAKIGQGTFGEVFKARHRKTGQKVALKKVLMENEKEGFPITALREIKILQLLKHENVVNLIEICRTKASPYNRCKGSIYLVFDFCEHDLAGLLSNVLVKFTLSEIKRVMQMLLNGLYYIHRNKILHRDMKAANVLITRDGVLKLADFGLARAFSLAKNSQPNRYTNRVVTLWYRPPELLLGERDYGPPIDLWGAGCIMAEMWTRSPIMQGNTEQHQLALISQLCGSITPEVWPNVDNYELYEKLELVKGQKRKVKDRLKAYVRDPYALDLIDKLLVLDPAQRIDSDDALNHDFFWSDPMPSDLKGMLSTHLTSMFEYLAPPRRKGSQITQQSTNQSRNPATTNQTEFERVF
Cdk9/cyclinT1, sequence (O60563 whole entry partner): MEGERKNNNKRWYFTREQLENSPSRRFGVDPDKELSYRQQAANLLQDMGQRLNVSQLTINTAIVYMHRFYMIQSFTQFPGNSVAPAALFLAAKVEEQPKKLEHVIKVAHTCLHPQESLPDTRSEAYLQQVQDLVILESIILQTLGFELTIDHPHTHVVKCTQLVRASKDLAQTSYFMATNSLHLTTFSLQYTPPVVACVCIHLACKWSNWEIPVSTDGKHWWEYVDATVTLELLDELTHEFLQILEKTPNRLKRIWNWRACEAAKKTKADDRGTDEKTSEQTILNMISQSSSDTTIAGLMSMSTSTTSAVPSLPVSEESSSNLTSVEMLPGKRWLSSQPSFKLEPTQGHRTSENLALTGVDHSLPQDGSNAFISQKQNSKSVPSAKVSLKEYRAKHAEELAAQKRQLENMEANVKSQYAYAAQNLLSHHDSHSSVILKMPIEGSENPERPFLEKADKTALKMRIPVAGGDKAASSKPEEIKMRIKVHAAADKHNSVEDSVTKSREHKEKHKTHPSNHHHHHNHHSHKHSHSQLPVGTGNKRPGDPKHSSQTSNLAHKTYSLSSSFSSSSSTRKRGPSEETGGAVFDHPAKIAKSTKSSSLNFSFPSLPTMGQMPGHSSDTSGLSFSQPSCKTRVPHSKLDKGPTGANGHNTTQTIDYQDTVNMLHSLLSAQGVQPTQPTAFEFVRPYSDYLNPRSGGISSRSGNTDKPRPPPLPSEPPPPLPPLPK

Compound `O=C(Nc1cc(-c2cccc(NCC3CCOCC3)n2)c(Cl)cn1)[C@H]1CNC[C@H]1F` [Example 85, (3R,4S)-4-Fluoro-pyrrolidine-3-carboxylic acid {5′-chloro-6-[(tetrahydro-pyran-4-ylmethyl)-amino]-[2,4′]bipyridinyl-2′-yl}-amide] returned an IC50 of 16 nM.
`CC(C)C(=O)Nc1cc(-c2nc(NCC3CCOCC3)ccc2Cl)c(Cl)cn1` [Example 86, N-{3,5′-Dichloro-6-[(tetrahydro-pyran-4-ylmethyl)-amino]-[2,4′]bipyridinyl-2′-yl}-isobutyramide] had an IC50 of under 8 nM.
The compound `O=C(Nc1cc(-c2nc(NCC3CCOCC3)ccc2Cl)c(Cl)cn1)C1CNCCO1` (centres unmarked) [Example 87, Morpholine-2-carboxylic acid {3,5′-dichloro-6-[(tetrahydro-pyran-4-ylmethyl)-amino]-[2,4′]bipyridinyl-2′-yl}-amide] yielded an IC50 of 18 nM.
`O=C(Nc1cc(-c2nc(NCC3CCOCC3)ccc2Cl)c(Cl)cn1)[C@@H]1CCNC1` [Example 88, (R)-Pyrrolidine-3-carboxylic acid {3,5′-dichloro-6-[(tetrahydro-pyran-4-ylmethyl)-amino]-[2,4′]bipyridinyl-2′-yl}-amide]: the IC50 was under 8 nM.
In turn, `CC(=O)N1CCC[C@H](C(=O)Nc2cc(-c3cccc(NCC4CCOCC4)n3)c(Cl)cn2)C1` [Example 89, (S)-1-Acetyl-piperidine-3-carboxylic acid {5′-chloro-6-[(tetrahydro-pyran-4-ylmethyl)-amino]-[2,4′]bipyridinyl-2′-yl}-amide] yielded an IC50 of under 8 nM.
The compound `COC(=O)N1CCC[C@H](C(=O)Nc2cc(-c3cccc(NCC4CCOCC4)n3)c(Cl)cn2)C1` [Example 90, (S)-3-{5′-Chloro-6-[(tetrahydro-pyran-4-ylmethyl)-amino]-[2,4′]bipyridinyl-2′-ylcarbamoyl}-piperidine-1-carboxylic acid methyl ester] gave an IC50 of 8 nM. In other words, the single-digit nanomolar range.
Consider `CS(=O)(=O)N1CCC[C@H](C(=O)Nc2cc(-c3cccc(NCC4CCOCC4)n3)c(Cl)cn2)C1` [Example 91, (S)-1-Methanesulfonyl-piperidine-3-carboxylic acid {5′-chloro-6-[(tetrahydro-pyran-4-ylmethyl)-amino]-[2,4′]bipyridinyl-2′-yl}-amide], for which the IC50 was under 8 nM.
The figure for `CCS(=O)(=O)N1CCC[C@H](C(=O)Nc2cc(-c3cccc(NCC4CCOCC4)n3)c(Cl)cn2)C1` [Example 92, (S)-1-Ethanesulfonyl-piperidine-3-carboxylic acid {5′-chloro-6-[(tetrahydro-pyran-4-ylmethyl)-amino]-[2,4′]bipyridinyl-2′-yl}-amide] is under 8 nM.
As for `O=C(Nc1cc(-c2cccc(NCC3CCOCC3)n2)c(Cl)cn1)[C@H]1CCCN(S(=O)(=O)C2CC2)C1` [Example 93, (S)-1-Cyclopropanesulfonyl-piperidine-3-carboxylic acid {5′-chloro-6-[(tetrahydro-pyran-4-ylmethyl)-amino]-[2,4′]bipyridinyl-2′-yl}-amide], the IC50 is under 8 nM.
For `CC1(C)CC(CNc2cccc(-c3cc(NC(=O)[C@@H]4CCCNC4)ncc3Cl)n2)CCO1` (stereo partly drawn) [Example 94, (R)-Piperidine-3-carboxylic acid {5′-chloro-6-[(2,2-dimethyl-tetrahydro-pyran-4-ylmethyl)-amino]-[2,4′]bipyridinyl-2′-yl}-amide] the value was under 8 nM.
For `O=C(Nc1cc(-c2cccc(NCC3CCOCC3)n2)c(Cl)cn1)C1(F)CCCNC1` (centres unmarked) [Example 95, 3-Fluoro-piperidine-3-carboxylic acid {5′-chloro-6-[(tetrahydro-pyran-4-ylmethyl)-amino]-[2,4′]bipyridinyl-2′-yl}-amide], the concentration for half-maximal inhibition (IC50) was found to be 167 nM.
The figure for `O=C(Nc1cc(-c2cccc(NCC3CCOCC3)n2)c(Cl)cn1)[C@H]1CNCCO1` [Example 96, (R)-Morpholine-2-carboxylic acid {5′-chloro-6-[(tetrahydro-pyran-4-ylmethyl)-amino]-[2,4′]bipyridinyl-2′-yl}-amide] is 5 nM; for `O=C(Nc1cc(-c2nc(NCC3CCOCC3)ccc2Cl)c(Cl)cn1)C1CCOCC1` [Example 97, Tetrahydro-pyran-4-carboxylic acid {3,5′-dichloro-6-[(tetrahydro-pyran-4-ylmethyl)-amino]-[2,4′]bipyridinyl-2′-yl}-amide] it is 10 nM.
Turning to `O=C(Nc1cc(-c2nc(NCC3CCOCC3)ccc2Cl)c(Cl)cn1)[C@H]1CCCNC1` [Example 98, (S)-Piperidine-3-carboxylic acid {3,5′-dichloro-6-[(tetrahydro-pyran-4-ylmethyl)-amino]-[2,4′]bipyridinyl-2′-yl}-amide], the IC50 worked out at 14 nM.
In turn, `N[C@@H]1CC[C@H](C(=O)Nc2cc(-c3nc(NCC4CCOCC4)ccc3Cl)c(Cl)cn2)C1` [Example 99, (1S,3R)-3-Amino-cyclopentanecarboxylic acid {3,5′-dichloro-6-[(tetrahydro-pyran-4-ylmethyl)-amino]-[2,4′]bipyridinyl-2′-yl}-amide] showed an IC50 of under 8 nM.
`N[C@H]1CC[C@@H](C(=O)Nc2cc(-c3nc(NCC4CCOCC4)ccc3Cl)c(Cl)cn2)C1` [Example 100, (1R,3S)-3-Amino-cyclopentanecarboxylic acid {3,5′-dichloro-6-[(tetrahydro-pyran-4-ylmethyl)-amino]-[2,4′]bipyridinyl-2′-yl}-amide] showed an IC50 of under 8 nM.
On to `O=C(Nc1cc(-c2nc(NCC3CCOCC3)ccc2Cl)c(Cl)cn1)[C@H]1CNCCO1` [Example 101, (R)-Morpholine-2-carboxylic acid {3,5′-dichloro-6-[(tetrahydro-pyran-4-ylmethyl)-amino]-[2,4′]bipyridinyl-2′-yl}-amide], for which the concentration for half-maximal inhibition (IC50) was 8 nM.
The compound `O=C(Nc1cc(-c2nc(NCC3CCOCC3)ccc2Cl)c(Cl)cn1)[C@H]1CNC[C@H]1F` [Example 102, (3R,4S)-4-Fluoro-pyrrolidine-3-carboxylic acid {3,5′-dichloro-6-[(tetrahydro-pyran-4-ylmethyl)-amino]-[2,4′]bipyridinyl-2′-yl}-amide] came in with an IC50 of 9 nM.
In turn, `O=C(COc1ccc(Cl)cn1)Nc1cc(-c2cccc(NCC3CCOCC3)n2)c(Cl)cn1` [Example 103, 2-(5-Chloro-pyridin-2-yloxy)-N-{5′-chloro-6-[(tetrahydro-pyran-4-ylmethyl)-amino]-[2,4′]bipyridinyl-2′-yl}-acetamide] showed an IC50 of 27 nM.
For the compound `COC(=O)N1CCC[C@H](C(=O)Nc2cc(-c3nc(NCC4CCOCC4)ccc3Cl)c(Cl)cn2)C1` [Example 105, (S)-3-{3,5′-Dichloro-6-[(tetrahydro-pyran-4-ylmethyl)-amino]-[2,4′]bipyridinyl-2′-ylcarbamoyl}-piperidine-1-carboxylic acid methyl ester], the IC50 is under 8 nM.
The compound `COC(=O)N[C@@H]1CC[C@H](C(=O)Nc2cc(-c3nc(NCC4CCOCC4)ccc3Cl)c(Cl)cn2)C1` [Example 106, ((lR,3S)-3-{3,5′-Dichloro-6-[(tetrahydro-pyran-4-ylmethyl)-amino]-[2,4′]bipyridinyl-2′-ylcarbamoyl}-cyclopentyl)-carbamic acid methyl ester] came in with an IC50 of under 8 nM.
`COC(=O)N[C@H]1CC[C@@H](C(=O)Nc2cc(-c3nc(NCC4CCOCC4)ccc3Cl)c(Cl)cn2)C1` [Example 107, ((lS,3R)-3-{3,5′-Dichloro-6-[(tetrahydro-pyran-4-ylmethyl)-amino]-[2,4′]bipyridinyl-2′-ylcarbamoyl}-cyclopentyl)-carbamic acid methyl ester] showed an IC50 of under 8 nM.
`CS(=O)(=O)N1CCC[C@H](C(=O)Nc2cc(-c3nc(NCC4CCOCC4)ccc3Cl)c(Cl)cn2)C1` [Example 108, (S)-1-Methanesulfonyl-piperidine-3-carboxylic acid {3,5′-dichloro-6-[(tetrahydro-pyran-4-ylmethyl)-amino]-[2,4′]bipyridinyl-2′-yl}-amide] registered a 50% inhibitory concentration (IC50) of under 8 nM.
`CS(=O)(=O)N[C@@H]1CC[C@H](C(=O)Nc2cc(-c3nc(NCC4CCOCC4)ccc3Cl)c(Cl)cn2)C1` [Example 109, (1S,3R)-3-Methanesulfonylamino-cyclopentanecarboxylic acid {3,5′-dichloro-6-[(tetrahydro-pyran-4-ylmethyl)-amino]-[2,4′]bipyridinyl-2′-yl}-amide]: the IC50 is under 8 nM.
`CS(=O)(=O)N[C@H]1CC[C@@H](C(=O)Nc2cc(-c3nc(NCC4CCOCC4)ccc3Cl)c(Cl)cn2)C1` [Example 110, (1R,3S)-3-Methanesulfonylamino-cyclopentanecarboxylic acid {3,5′-dichloro-6-[(tetrahydro-pyran-4-ylmethyl)-amino]-[2,4′]bipyridinyl-2′-yl}-amide] displayed an IC50 of under 8 nM.
`CCS(=O)(=O)N1CCC[C@H](C(=O)Nc2cc(-c3nc(NCC4CCOCC4)ccc3Cl)c(Cl)cn2)C1` [Example 111, (S)-1-Ethanesulfonyl-piperidine-3-carboxylic acid {3,5′-dichloro-6-[(tetrahydro-pyran-4-ylmethyl)-amino]-[2,4′]bipyridinyl-2′-yl}-amide] registered an IC50 of under 8 nM.
For `CC(C)S(=O)(=O)N1CCC[C@H](C(=O)Nc2cc(-c3nc(NCC4CCOCC4)ccc3Cl)c(Cl)cn2)C1` [Example 112, (S)-1-(Propane-2-sulfonyl)-piperidine-3-carboxylic acid {3,5′-dichloro-6-[(tetrahydro-pyran-4-ylmethyl)-amino]-[2,4′]bipyridinyl-2′-yl}-amide], the IC50 is under 8 nM.
The figure for `CCS(=O)(=O)N[C@@H]1CC[C@H](C(=O)Nc2cc(-c3nc(NCC4CCOCC4)ccc3Cl)c(Cl)cn2)C1` [Example 113, (1S,3R)-3-Ethanesulfonylamino-cyclopentanecarboxylic acid {3,5′-dichloro-6-[(tetrahydro-pyran-4-ylmethyl)-amino]-[2,4′]bipyridinyl-2′-yl}-amide] is under 8 nM.
For `CC(C)S(=O)(=O)N[C@@H]1CC[C@H](C(=O)Nc2cc(-c3nc(NCC4CCOCC4)ccc3Cl)c(Cl)cn2)C1` [Example 114, (1S,3R)-3-(Propane-2-sulfonylamino)-cyclopentanecarboxylic acid {3,5′-dichloro-6-[(tetrahydro-pyran-4-ylmethyl)-amino]-[2,4′]bipyridinyl-2′-yl}-amide] the value was under 8 nM.
